Experimental data as given in patent EP0180416A2, “Benzoic acid analogues and their production” (Takeda Chemical Industries, Ltd., priority 1984, dated 1986).
Where a name gives a salt, the structure may show the parent alone.

How the values were obtained:
[1] = test system: synthetic leukotriene D4 (LTD4); assay: Bronchoconstriction due to LTD4 in guinea pigs (Konzett-Rossler method); type: in vivo, Guinea pigs of Hartley strain; details: Cavia porcellus, 1 h; 50% inhibitory dose; oral, one hour before LTD4 (10 ug/kg i.v.); inhibition of overflow volume at maximal response; anesthetized guinea pigs; read-out: ID50(p.o.)
Protocol: Guinea pigs of Hartley strain, both male and female, with body weights about 400 g were assigned to groups of 6 to 10 individuals, and the bronchoconstriction due to LTD4 was measured according to the method of Konzett-Rossler [Konzett, H. and ROssler, R.: Naunyn-Schmiedebergs Archiv far Experimentelle Pathologie und Pharmakologie 195, 71-74 (1940)]. Each guinea pig was fixed in a supine position under urethane anesthesia (1.5 g/kg, intraperitoneal) and the trachea was incised and connected to an artificial respiration apparatus, Rodent Respirator Model 680 [Harvard Apparatus Company, U.S.A.] via a cannula. The branch tube of this tracheal cannula was connected to a Bronchospasm Transducer Model 7020 [Ugobasil Biological Researach Apparatus, Italy]. Under the conditions of 4 to 7 ml of air per stroke, 70 strokes per minute and a lung loading pressure of 10 cm H2O, the volume of overflowing air was recorded on a Rectigraph-8S (Sanei Sokki Ltd., Japan) via a transducer. After administration of gallamine·triethiodide (1 mg/kg, i.v.), a solution of LTD4 in physiological saline (10 ug/kg) was intravenously administered and the bronchoconstriction elicited thereby was recorded for 15 minutes. The compound was used as suspended in a 5% solution of gum arabic or dissolved in water, and administered orally in a volume of 0.2 ml per 100 g body weight one hour before LTD4 loading. LTD4 was administered through a cannula inserted into the jugular vein. LTD4 was used as dissolved in physiological saline, which was taken from a stock stored in methanol (1 mg/l mℓ methanol) at -70°C.

mice = assay: Acute toxicity in mice; type: in vivo, mice of Jcl:ICR strain; details: 2000 mg/kg, male mice; for symptoms after oral administration (acute toxicity): suspended in 5% gum arabic; for autopsy findings: oral, autopsy after 7 days
Protocol: Five 5-week-old male mice of Jcl:ICR strain, weighing about 30 g each, were used. Compound (I)-2 or (I)-4 was suspended in a 5% solution of gum arabic and administered orally at the level of 0.2 ml per 10 grams body weight.

Structure (SMILES)	ED50 [1] [µmol/kg]	symptoms after oral administration (acute toxicity) (mice)	autopsy findings (mice)
CCCc1c(OCCCOc2ccc(C(=O)OCCN3CCOCC3)cc2Br)ccc(C(C)=O)c1O [(I)-2, 2-morpholinoethyl 4-[3-(4-acetyl-3-hydroxy-2-propylphenoxy)propoxy]-3-bromobenzoate]	41	no symptoms	did not reveal any abnormalities
CCCc1c(OCCCOc2ccc(C(=O)O)cc2Br)ccc(C(C)=O)c1O [Control compound (A), 4-[3-(4-acetyl-3-hydroxy-2-propylphenoxy)propoxy]-3-bromobenzoic acid, reference compound]	146		
CCCc1c(OCCCOc2ccc(C(=O)OCCN(C)C)cc2Br)ccc(C(C)=O)c1O [(I)-1, 2-(N,N-dimethylamino)ethyl 4-[3-(4-acetyl-3-hydroxy-2-propylphenoxy)propoxy]-3-bromobenzoate·hydrochloride·monohydrate]	49		
CCCc1c(OCCCOc2ccc(C(=O)OCCCN(C)C)cc2Br)ccc(C(C)=O)c1O [(I)-4, 3-(N,N-dimethylamino)propyl 4-[3-(4-acetyl-3-hydroxy-2-propylphenoxy)propoxy]-3-bromobenzoate]	52	no symptoms	did not reveal any abnormalities
CCCc1c(OCCCOc2ccc(C(=O)OCCN3CCN(C)CC3)cc2Br)ccc(C(C)=O)c1O [(I)-3, 2-(4-methyl-l-piperazinyl)ethyl 4-[3-(4-acetyl-3-hydroxy-2-propylphenoxy)propoxy]-3-bromobenzoate· dihydrochloride·monohydrate]	49		
